According to US11725036B2, “Modified lipidated relaxin B chain peptides and their therapeutic use” (Sanofi, priority 2018, dated 2023):
Starred links: 1 amine or outer side, 2 acyl side, 3 side chain; linkers in the order of their positions; H or OH if unused. Non-standard residues stand in square brackets, D forms with d. Residues, ends and D or L forms follow the SMILES beside them. Groups on a side chain read outwards from the residue. *: point of attachment. X5 = CCCCCCCCCCCCCCCC(=O)N[C@@H](CCC(=O)N[C@@H](CCC(=O)N[C@@H](CCC(=O)NCCCOCCOCCOCCCNC(=O)CCC(=O)NCCCOCCOCCOCCCNC(=O)CCC(=O)NCCCOCCOCCOCCCNC(=O)CCC(=O)NCCCOCCOCCOCCCN*)C(=O)O)C(=O)O)C(=O)O; X3 = CCCCCCCCCCCCCCCCCC(=O)N[C@@H](CCC(=O)N[C@@H](CCC(=O)N[C@@H](CCC(=O)NCCCOCCOCCOCCCNC(=O)CCC(=O)NCCCOCCOCCOCCCNC(=O)CCC(=O)NCCCOCCOCCOCCCN*)C(=O)O)C(=O)O)C(=O)O; X1 = CCCCCCCCCCCCCCCC(=O)N[C@@H](CCC(=O)N[C@@H](CCC(=O)N[C@@H](CCC(=O)NCCCOCCOCCOCCCNC(=O)CCC(=O)NCCCOCCOCCOCCCNC(=O)CCC(=O)NCCCOCCOCCOCCCN*)C(=O)O)C(=O)O)C(=O)O; γGlu = O=C(O)[C@H](CCC(=O)[*:2])N[*:1]; Palmitoyl = CCCCCCCCCCCCCCCC(=O)*; αMeF = C[C@](N)(Cc1ccccc1)C(=O)O; Cit = NC(=O)NCCC[C@H](N)C(=O)O; Suc = O=C(CCC(=O)[*:2])[*:1]; αMeK = C[C@](N)(CCCCN)C(=O)O; hLys = NCCCCC[C@H](N)C(=O)O; AEEA = NCCOCCOCC(=O)O; Aib = CC(C)(N)C(=O)O

Molecular target: T1, RXFP1 (Homo sapiens, UniProt Q9HBX9)
T1 construct: OVCAR5 cells expressing endogenous RXFP1; endogenous in cells; host or cells: OVCAR5
T1 sequence (Q9HBX9 1-757): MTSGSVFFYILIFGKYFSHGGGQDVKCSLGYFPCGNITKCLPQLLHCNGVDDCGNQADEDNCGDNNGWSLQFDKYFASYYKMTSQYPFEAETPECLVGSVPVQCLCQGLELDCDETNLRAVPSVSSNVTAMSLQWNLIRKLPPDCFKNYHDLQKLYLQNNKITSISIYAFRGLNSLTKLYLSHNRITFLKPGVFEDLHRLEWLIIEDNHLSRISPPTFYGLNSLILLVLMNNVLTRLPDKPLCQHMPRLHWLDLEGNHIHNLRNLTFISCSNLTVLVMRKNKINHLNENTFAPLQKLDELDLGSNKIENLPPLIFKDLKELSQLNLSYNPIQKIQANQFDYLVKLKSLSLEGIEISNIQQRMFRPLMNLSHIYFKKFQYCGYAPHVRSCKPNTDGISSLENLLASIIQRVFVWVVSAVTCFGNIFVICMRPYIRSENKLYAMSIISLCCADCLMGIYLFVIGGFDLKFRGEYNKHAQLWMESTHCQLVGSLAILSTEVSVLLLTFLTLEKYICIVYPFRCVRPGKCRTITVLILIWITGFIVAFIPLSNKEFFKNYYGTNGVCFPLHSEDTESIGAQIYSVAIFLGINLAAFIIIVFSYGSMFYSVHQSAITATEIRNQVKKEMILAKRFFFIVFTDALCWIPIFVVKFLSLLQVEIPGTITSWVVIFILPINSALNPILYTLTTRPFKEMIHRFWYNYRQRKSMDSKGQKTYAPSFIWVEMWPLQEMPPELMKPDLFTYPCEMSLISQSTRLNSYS
Test: OVCAR5 cAMP assay (HTRF)
Format: cell-based
Conditions: for EC50: OVCAR 5 cells expressing endogenous RXFP1, cAMP readout; for Emax: OVCAR 5 cells, maximal cAMP relative to H2-relaxin
How it was run: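 Endogenous RXFP1 in OVCAR5 cells, pretreated 40 min at 37° C with 1 mM IBMX, then exposed to increasing peptide concentrations in serum-free medium for 30 min at 37° C. cAMP read by HTRF; EC50 by variable-slope sigmoidal fit, Emax as % of H2-relaxin maximal cAMP in same run.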

SMILES: CCCCCCCCCCCCCCCC(=O)N[C@@H](CCC(=O)N[C@@H](CCC(=O)N[C@@H](CCC(=O)NCCCOCCOCCOCCCNC(=O)CCC(=O)NCCCOCCOCCOCCCNC(=O)CCC(=O)NCCCOCCOCCOCCCNC(=O)CCC(=O)NCCCOCCOCCOCCCNC(=O)CCC(=O)NCCCC[C@H](NC(=O)CNC(=O)[C@H](CCC(=O)O)NC(=O)C(C)(C)NC(=O)C(C)(C)NC(=O)[C@@H](NC(=O)[C@H](CCCCNC(C)=O)NC(=O)[C@H](C)NC(=O)[C@H](CCCNC(=N)N)NC(=O)[C@@H](NC(=O)[C@H](CCCNC(=N)N)NC(=O)[C@H](CCC(=O)O)NC(=O)[C@H](CCCNC(=N)N)NC(=O)CNC(=O)[C@H](CCC(=O)O)NC(=O)[C@H](CC(C)C)NC(C)=O)C(C)C)[C@@H](C)CC)C(=O)N[C@@H](CO)C(=O)N[C@H](C(=O)N[C@@H](Cc1ccccc1)C(=O)N[C@@H](CO)C(=O)NC(C)(C)C(=O)N[C@@H](CCCNC(=N)N)C(=O)N[C@@H](CCCNC(=N)N)C(=O)N[C@@H](CCCCNC(C)=O)C(N)=O)[C@@H](C)O)C(=O)O)C(=O)O)C(=O)O [compound 77] (Ac-LEGRERVRAK(Ac)I[Aib][Aib]EGK([Suc-X5])STFS[Aib]RRK(Ac)-NH2)
- EC50: 0.11 nM
- Emax: 98%

SMILES: CCCCCCCCCCCCCCCC(=O)N[C@@H](CCC(=O)N[C@@H](CCC(=O)N[C@@H](CCC(=O)NCCCOCCOCCOCCCNC(=O)CCC(=O)NCCCOCCOCCOCCCNC(=O)CCC(=O)NCCCOCCOCCOCCCNC(=O)CCC(=O)NCCCC[C@H](NC(=O)CNC(=O)[C@H](CCC(=O)O)NC(=O)C(C)(C)NC(=O)C(C)(C)NC(=O)[C@@H](NC(=O)[C@H](CCCCNC(C)=O)NC(=O)[C@H](C)NC(=O)[C@H](CCCNC(=N)N)NC(=O)[C@@H](NC(=O)[C@H](CCCCN)NC(=O)[C@H](CCC(=O)O)NC(=O)[C@H](CCCNC(=N)N)NC(=O)CNC(=O)[C@H](CCC(=O)O)NC(=O)[C@H](CC(C)C)NC(C)=O)C(C)C)[C@@H](C)CC)C(=O)N[C@@H](CO)C(=O)N[C@H](C(=O)N[C@@H](Cc1c[nH]c2ccccc12)C(=O)N[C@@H](CO)C(=O)N[C@@H](CCCCCN)C(=O)N[C@@H](CCCNC(=N)N)C(=O)N[C@@H](C)C(=O)N[C@@H](CCCCNC(C)=O)C(N)=O)[C@@H](C)O)C(=O)O)C(=O)O)C(=O)O [compound 57] (Ac-LEGREKVRAK(Ac)I[Aib][Aib]EGK([Suc-X1])STWS[hLys]RAK(Ac)-NH2)
- EC50: 0.44 nM
- Emax: 98%

SMILES: CCCCCCCCCCCCCCCCCC(=O)N[C@@H](CCC(=O)N[C@@H](CCC(=O)N[C@@H](CCC(=O)NCCCOCCOCCOCCCNC(=O)CCC(=O)NCCCOCCOCCOCCCNC(=O)CCC(=O)NCCCOCCOCCOCCCNC(=O)CCC(=O)NCCCC[C@H](NC(=O)CNC(=O)[C@H](CCC(=O)O)NC(=O)C(C)(C)NC(=O)C(C)(C)NC(=O)[C@@H](NC(=O)[C@H](CCCNC(N)=O)NC(=O)[C@H](C)NC(=O)[C@H](CCCNC(=N)N)NC(=O)[C@@H](NC(=O)[C@H](CCCCN)NC(=O)[C@H](CCC(=O)O)NC(=O)[C@H](CCCNC(=N)N)NC(=O)CNC(=O)[C@H](CCC(=O)O)NC(=O)[C@H](CC(C)C)NC(C)=O)C(C)C)[C@@H](C)CC)C(=O)N[C@@H](CO)C(=O)N[C@H](C(=O)N[C@@H](Cc1ccccc1)C(=O)N[C@@H](CO)C(=O)N[C@@](C)(CCCCN)C(=O)N[C@@H](CCCNC(=N)N)C(=O)N[C@@H](C)C(=O)N[C@@H](CCCCNC(C)=O)C(N)=O)[C@@H](C)O)C(=O)O)C(=O)O)C(=O)O [compound 56] (Ac-LEGREKVRA[Cit]I[Aib][Aib]EGK([Suc-X3])STFS[αMeK]RAK(Ac)-NH2)
- EC50: 0.15 nM
- Emax: 91%

SMILES: CCCCCCCCCCCCCCCC(=O)N[C@@H](CCC(=O)N[C@@H](CCC(=O)N[C@@H](CCC(=O)NCCCOCCOCCOCCCNC(=O)CCC(=O)NCCCOCCOCCOCCCNC(=O)CCC(=O)NCCCOCCOCCOCCCNC(=O)CCC(=O)NCCCC[C@H](NC(=O)CNC(=O)[C@H](CCC(=O)O)NC(=O)C(C)(C)NC(=O)C(C)(C)NC(=O)[C@@H](NC(=O)[C@H](CCCCNC(C)=O)NC(=O)[C@H](C)NC(=O)[C@H](CCCNC(=N)N)NC(=O)[C@@H](NC(=O)[C@H](CCCCN)NC(=O)[C@H](CCC(=O)O)NC(=O)[C@H](CCCNC(=N)N)NC(=O)CNC(=O)[C@H](CCC(=O)O)NC(=O)[C@H](CC(C)C)NC(C)=O)C(C)C)[C@@H](C)CC)C(=O)N[C@@H](CO)C(=O)N[C@H](C(=O)N[C@@](C)(Cc1ccccc1)C(=O)N[C@@H](CO)C(=O)N[C@@H](CCCNC(=N)N)C(=O)N[C@@H](CCCNC(=N)N)C(=O)N[C@@H](C)C(=O)N[C@@H](CCCCNC(C)=O)C(N)=O)[C@@H](C)O)C(=O)O)C(=O)O)C(=O)O [compound 89] (Ac-LEGREKVRAK(Ac)I[Aib][Aib]EGK([Suc-X1])ST[αMeF]SRRAK(Ac)-NH2)
- EC50: 0.1 nM
- Emax: 97%

SMILES: CCCCCCCCCCCCCCCC(=O)N[C@@H](CCC(=O)N[C@@H](CCC(=O)N[C@@H](CCC(=O)NCCOCCOCC(=O)NCCOCCOCC(=O)NCCOCCOCC(=O)NCCOCCOCC(=O)NCCOCCOCC(=O)NCCCC[C@H](NC(=O)CNC(=O)[C@H](CCC(=O)O)NC(=O)C(C)(C)NC(=O)C(C)(C)NC(=O)[C@@H](NC(=O)[C@H](CCCCNC(C)=O)NC(=O)[C@H](C)NC(=O)[C@H](CCCNC(=N)N)NC(=O)[C@@H](NC(=O)[C@H](CCCCN)NC(=O)[C@H](CCC(=O)O)NC(=O)[C@H](CCCNC(=N)N)NC(=O)CNC(=O)[C@H](CCC(=O)O)NC(=O)[C@H](CC(C)C)NC(C)=O)C(C)C)[C@@H](C)CC)C(=O)N[C@@H](CO)C(=O)N[C@H](C(=O)N[C@@H](Cc1ccccc1)C(=O)N[C@@H](CO)C(=O)N[C@@](C)(CCCCN)C(=O)N[C@@H](CCCNC(=N)N)C(=O)N[C@@H](C)C(=O)N[C@@H](CCCCNC(C)=O)C(N)=O)[C@@H](C)O)C(=O)O)C(=O)O)C(=O)O [compound 45] (Ac-LEGREKVRAK(Ac)I[Aib][Aib]EGK([AEEA-AEEA-AEEA-AEEA-AEEA-γGlu-γGlu-γGlu-Palmitoyl])STFS[αMeK]RAK(Ac)-NH2)
- EC50: 0.45 nM
- Emax: 96%

SMILES: CCCCCCCCCCCCCCCC(=O)N[C@@H](CCC(=O)N[C@@H](CCC(=O)N[C@@H](CCC(=O)NCCCOCCOCCOCCCNC(=O)CCC(=O)NCCCOCCOCCOCCCNC(=O)CCC(=O)NCCCOCCOCCOCCCNC(=O)CCC(=O)NCCCC[C@H](NC(=O)CNC(=O)[C@H](CCC(=O)O)NC(=O)C(C)(C)NC(=O)C(C)(C)NC(=O)[C@@H](NC(=O)[C@H](CCCCNC(C)=O)NC(=O)[C@H](C)NC(=O)[C@H](CCCNC(=N)N)NC(=O)[C@@H](NC(=O)[C@H](CCCNC(=N)N)NC(=O)[C@H](CCC(=O)O)NC(=O)[C@H](CCCNC(=N)N)NC(=O)CNC(=O)[C@H](CCC(=O)O)NC(=O)[C@H](CC(C)C)NC(C)=O)C(C)C)[C@@H](C)CC)C(=O)N[C@@H](CO)C(=O)N[C@H](C(=O)N[C@@H](Cc1c[nH]c2ccccc12)C(=O)N[C@@H](CO)C(=O)NC(C)(C)C(=O)N[C@@H](CCCNC(=N)N)C(=O)N[C@@H](CCCCN)C(=O)N[C@@H](CCCCNC(C)=O)C(N)=O)[C@@H](C)O)C(=O)O)C(=O)O)C(=O)O [compound 67] (Ac-LEGRERVRAK(Ac)I[Aib][Aib]EGK([Suc-X1])STWS[Aib]RKK(Ac)-NH2)
- EC50: 0.48 nM
- Emax: 95%

SMILES: CCCCCCCCCCCCCCCC(=O)N[C@@H](CCC(=O)N[C@@H](CCC(=O)N[C@@H](CCC(=O)NCCCOCCOCCOCCCNC(=O)CCC(=O)NCCCOCCOCCOCCCNC(=O)CCC(=O)NCCCOCCOCCOCCCNC(=O)CCC(=O)NCCCC[C@H](NC(=O)CNC(=O)[C@H](CCC(=O)O)NC(=O)C(C)(C)NC(=O)C(C)(C)NC(=O)[C@@H](NC(=O)[C@H](CCCCN)NC(=O)[C@H](C)NC(=O)[C@H](CCCNC(=N)N)NC(=O)[C@@H](NC(=O)[C@H](CCCCN)NC(=O)[C@H](CCC(=O)O)NC(=O)[C@H](CCCNC(=N)N)NC(=O)CNC(=O)[C@H](CCC(=O)O)NC(=O)[C@H](CC(C)C)NC(C)=O)C(C)C)[C@@H](C)CC)C(=O)N[C@@H](CO)C(=O)N[C@H](C(=O)N[C@@H](Cc1ccccc1)C(=O)N[C@@H](CO)C(=O)N[C@@](C)(CCCCN)C(=O)N[C@@H](CCCNC(=N)N)C(=O)N[C@@H](C)C(=O)N[C@@H](CCCCNC(C)=O)C(N)=O)[C@@H](C)O)C(=O)O)C(=O)O)C(=O)O [compound 47] (Ac-LEGREKVRAKI[Aib][Aib]EGK([Suc-X1])STFS[αMeK]RAK(Ac)-NH2)
- EC50: 0.64 nM
- Emax: 95%
